From PubChem BioAssay (NCI)
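Dose response: 5 concentrations. Exposure: 48 h. Format: 96-well plates. Endpoint: linear interpolation; highest concentration if not reached. GI50: concentration for 50% inhibition of growth. TGI marks complete inhibition of growth.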

Assays:
Test in all cases: NCI tumour cell line growth inhibition, 48 h
[1] = system: HCT-116 colon
[2] = system: SNB-19 CNS
[3] = system: SW-620 colon
[4] = system: OVCAR-8 ovarian
[5] = system: MDA-MB-435
[6] = system: MALME-3M melanoma
[7] = system: SF-268 CNS
[8] = system: NCI-H23 lung
[9] = system: HL-60(TB) leukemia
[10] = system: OVCAR-4 ovarian
[11] = system: LOX IMVI melanoma
[12] = system: HCC-2998 colon
[13] = system: RPMI-8226 leukemia
[14] = system: OVCAR-5 ovarian
[15] = system: SNB-75 CNS
[16] = system: UACC-257 melanoma
[17] = system: SK-MEL-2 melanoma
[18] = system: SF-295 CNS
[19] = system: HT29 colon
[20] = system: HS 578T breast
[21] = system: A498 renal
[22] = system: HCT-15 colon
[23] = system: DU-145 prostate
[24] = system: NCI-H226 lung
[25] = system: IGROV1 ovarian
[26] = system: OVCAR-3 ovarian
[27] = system: MCF7 breast
[28] = system: NCI/ADR-RES ovarian
[29] = system: CCRF-CEM leukemia
[30] = system: A549 NSCLC
[31] = system: UO-31 renal
[32] = system: M14 melanoma
[33] = system: 786-0 renal
[34] = system: MDA-MB-231 breast
[35] = system: MOLT-4 leukemia
[36] = system: NCI-H460 lung
[37] = system: PC-3 prostate
[38] = system: HOP-92 NSCLC
[39] = system: SN12C renal
[40] = system: SK-MEL-28 melanoma
[41] = system: KM12 colon
[42] = system: CAKI-1 renal
[43] = system: SK-MEL-5 melanoma
[44] = system: K-562 leukemia
[45] = system: ACHN renal
[46] = system: BT-549 breast
[47] = system: SK-OV-3 ovarian
[48] = system: RXF 393 renal
[49] = system: T-47D breast
[50] = system: NCI-H522 lung
[51] = system: TK-10 renal
[52] = system: SR leukemia
[53] = system: SF-539 CNS
[54] = system: EKVX NSCLC
[55] = system: UACC-62 melanoma

Structure (SMILES): CCCCCC/C=C\CCCCCCCCCc1cc(O)cc(OC)c1O
- GI50 [1]: 330 nM
- TGI [1]: 1250 nM
- GI50 [2]: 347 nM
- TGI [2]: 10300 nM
- GI50 [3]: 371 nM
- TGI [3]: 1810 nM
- GI50 [4]: 307 nM
- TGI [4]: 6500 nM
- GI50 [5]: 363 nM
- TGI [5]: 1960 nM
- GI50 [6]: 444 nM
- TGI [6]: 2140 nM
- GI50 [7]: 441 nM
- TGI [7]: 1690 nM
- GI50 [8]: 348 nM
- TGI [8]: 1290 nM
- GI50 [9]: 272 nM
- TGI [9]: 717 nM
- GI50 [10]: 389 nM
- TGI [10]: 1690 nM
- GI50 [11]: 339 nM
- TGI [11]: 1210 nM
- GI50 [12]: 633 nM
- TGI [12]: 4340 nM
- GI50 [13]: 219 nM
- GI50 [14]: 402 nM
- TGI [14]: 2410 nM
- GI50 [15]: 317 nM
- TGI [15]: 1440 nM
- GI50 [16]: 474 nM
- TGI [16]: 2920 nM
- GI50 [17]: 494 nM
- TGI [17]: 2410 nM
- GI50 [18]: 304 nM
- TGI [18]: 1370 nM
- GI50 [19]: 353 nM
- TGI [19]: 6930 nM
- GI50 [20]: 599 nM
- TGI [20]: 5180 nM
- GI50 [21]: 330 nM
- TGI [21]: 2070 nM
- GI50 [22]: 285 nM
- TGI [22]: 1320 nM
- GI50 [23]: 575 nM
- TGI [23]: 15200 nM
- GI50 [24]: 370 nM
- TGI [24]: 1490 nM
- GI50 [25]: 433 nM
- TGI [25]: 1640 nM
- GI50 [26]: 401 nM
- TGI [26]: 1430 nM
- GI50 [27]: 292 nM
- TGI [27]: 2490 nM
- GI50 [28]: 311 nM
- TGI [28]: 1270 nM
- GI50 [29]: 219 nM
- TGI [29]: 1290 nM
- GI50 [30]: 406 nM
- TGI [30]: 14600 nM
- GI50 [31]: 321 nM
- TGI [31]: 1220 nM
- GI50 [32]: 403 nM
- TGI [32]: 3650 nM
- GI50 [33]: 316 nM
- TGI [33]: 1570 nM
- GI50 [34]: 308 nM
- TGI [34]: 978 nM
- GI50 [35]: 333 nM
- TGI [35]: 1860 nM
- GI50 [36]: 323 nM
- TGI [36]: 10100 nM
- GI50 [37]: 308 nM
- TGI [37]: 1540 nM
- GI50 [38]: 234 nM
- TGI [38]: 767 nM
- GI50 [39]: 310 nM
- TGI [39]: 1500 nM
- GI50 [40]: 653 nM
- TGI [40]: 2340 nM
- GI50 [41]: 388 nM
- TGI [41]: 2300 nM
- GI50 [42]: 497 nM
- TGI [42]: 1820 nM
- GI50 [43]: 329 nM
- TGI [43]: 1180 nM
- GI50 [44]: 298 nM
- TGI [44]: 2080 nM
- GI50 [45]: 318 nM
- TGI [45]: 1210 nM
- GI50 [46]: 375 nM
- TGI [46]: 1450 nM
- GI50 [47]: 402 nM
- TGI [47]: 11600 nM
- GI50 [48]: 320 nM
- TGI [48]: 1380 nM
- GI50 [49]: 349 nM
- TGI [49]: 1930 nM
- GI50 [50]: 321 nM
- TGI [50]: 1220 nM
- GI50 [51]: 664 nM
- TGI [51]: 2650 nM
- GI50 [52]: 344 nM
- TGI [52]: 3260 nM
- GI50 [53]: 377 nM
- TGI [53]: 1510 nM
- GI50 [54]: 335 nM
- TGI [54]: 1740 nM
- GI50 [55]: 396 nM
- TGI [55]: 1950 nM
